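All cell lines were grown in 96-well plates and treated with compound for 48 hours. The concentration for full growth arrest is given as TGI.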
Tests used:
Assay in all cases: NCI anticancer screen, dose series, 48 h
[1] = test system: 786-0 renal
[2] = test system: DLD-1 colon
[3] = test system: HOP-18 NSCLC
[4] = test system: RXF-631 renal
[5] = test system: DMS 114 small cell lung
[6] = test system: SNB-78 CNS
[7] = test system: LXFL 529 NSCLC
[8] = test system: DMS 273 small cell lung
[9] = test system: XF 498 CNS
[10] = test system: SN12K1 renal

| Structure (SMILES) | TGI [1] [µM] | TGI [2] [µM] | TGI [3] [µM] | TGI [4] [µM] | TGI [5] [µM] | TGI [6] [µM] | TGI [7] [µM] | TGI [8] [µM] | TGI [9] [µM] | TGI [10] [µM] |
| --- | --- | --- | --- | --- | --- | --- | --- | --- | --- | --- |
| C[N+](C)=c1nc(N2CCc3ccccc3C2)ss1 | > 100 | > 100 | > 100 | > 100 | > 100 | > 100 | > 100 | > 100 |  |  |
| NCc1cc(O)c(O)c(O)c1 | > 100 | > 100 | > 100 | > 100 | > 100 | > 100 | > 100 | > 100 | > 100 |  |
| COC(=O)C1=C(C)N2CCOC2CC1c1ccccc1 (stereo not drawn) |  | > 100 |  |  | > 100 |  | > 100 |  |  |  |
| C/C(=N\NC(=S)NCc1ccccc1)c1nc2ncccc2[nH]1 | > 100 |  |  |  |  |  |  |  |  |  |
| CNCCC=C1c2ccccc2CCc2ccccc21 | 27.7 |  |  |  |  |  |  |  |  |  |
| O=C(CCN1CCOCC1)C(=Cc1ccccc1)C(=O)CCN1CCOCC1 |  | 3.84 | 30.6 |  |  | 8.5 |  | 26 | 12.8 | 5.68 |

From PubChem BioAssay (NCI)
